Laboratory results reported in patent US6982251B2, “Substituted 2-azetidinones useful as hypocholesterolemic agents” (Schering Corporation, priority 2000, dated 2006).
Each block holds one molecule with its values, some of them ahead of it.

Experiments:
Hyperlipidemic Hamster = assay: In Vivo Assay of Hypolipidemic Agents Using the Hyperlipidemic Hamster; conditions: oral gavage once daily, 7 days, percent change versus control; for % Reduction in Plasma Cholesterol: cholesterol diet, negative = lowering; for % Reduction in Cholesterol Esters: hepatic cholesterol esters
Description: In Vivo Assay of Hypolipidemic Agents Using the Hyperlipidemic Hamster
Hamsters are separated into groups of six and given a controlled cholesterol diet (Purina Chow #5001 containing 0.5% cholesterol) for seven days. Diet consumption is monitored to determine dietary cholesterol exposure in the presence of test compounds. The animals are dosed with the test compound once daily beginning with the initiation of diet. Dosing is by oral gavage of 0.2 mL of corn oil alone (control group) or solution (or suspension) of test compound in corn oil. All animals moribund or in poor physical condition are euthanized. After seven days, the animals are anesthetized by IM injection of ketamine and sacrificed by decapitation. Blood is collected into Vacutainer™ tubes containing EDTA for plasma total cholesterol and triglyceride analysis and the liver excised for free and esterified cholesterol and triglyceride tissue analysis. Data is reported as percent reduction of plasma cholesterol and hepatic cholesterol esters versus control levels.
Data is reported as percent change (i.e., percent reduction in plasma cholesterol and in hepatic cholesterol esters) versus control, therefore, negative numbers indicate a positive cholesterol-lowering effect.

human jejunum microsomes = assay: Incubation with human jejunum microsomes supplemented with UDPGA; format: in vitro ADME; conditions: No hydrolysis; after 2 hr incubation of human jejunum microsomes with 50 μM Compound 6A + UDPGA
β-Glucuronidase = β-Glucuronidase hydrolysis of the glucuronide mixture obtained from jejunum microsomes; format: in vitro ADME; conditions: for Outcome of β-glucuronidase hydrolysis: after hydrolyzing for 18 h

% of Compound 6A (human jejunum microsomes): 32.06%
% of Compound 6A (β-Glucuronidase; Control: 180 min, No microsomes, No UDPGA): 72.92%
% of Compound 6A (β-Glucuronidase; hydrolysis time 5 min): 68.10%
% of Compound 6A (β-Glucuronidase; hydrolysis time 10 min): 61.88%
% of Compound 6A (β-Glucuronidase; hydrolysis time 20 min): 66.02%
% of Compound 6A (β-Glucuronidase; hydrolysis time 30 min): 80.14%
% of Compound 6A (β-Glucuronidase; hydrolysis time 180 min): 84.67%
Compound: O=C1[C@H](CC[C@H](O)c2ccc(F)cc2)[C@@H](c2ccc(O)cc2)N1c1ccc(F)cc1 [Compound 6A, ezetimibe]
% Reduction in Plasma Cholesterol (Hyperlipidemic Hamster; dose 1 mg/kg): −59%
% Reduction in Cholesterol Esters (Hyperlipidemic Hamster; dose 1 mg/kg): −95%

% of Compound III (Benzylic Glucuronide) (human jejunum microsomes): 32.14%
% of Compound III (Benzylic Glucuronide) (β-Glucuronidase; hydrolysis time 5 min): 19.30%
% of Compound III (Benzylic Glucuronide) (β-Glucuronidase; hydrolysis time 10 min): 18.58%
% of Compound III (Benzylic Glucuronide) (β-Glucuronidase; hydrolysis time 20 min): 15.12%
% of Compound III (Benzylic Glucuronide) (β-Glucuronidase; hydrolysis time 30 min): 11.22%
% of Compound III (Benzylic Glucuronide) (β-Glucuronidase; hydrolysis time 180 min): 6.5%
Compound: O=C(O)C1OC(O[C@@H](CCC2C(=O)N(c3ccc(F)cc3)C2c2ccc(O)cc2)c2ccc(F)cc2)[C@H](O)[C@@H](O)[C@@H]1O (some centres unmarked) [Compound III]
Outcome of β-glucuronidase hydrolysis (β-Glucuronidase): hydrolyzed to form a single Compound 6A peak

% of Example 1 (Phenolic Glucuronide) (human jejunum microsomes): 31.68%
% of Example 1 (Phenolic Glucuronide) (β-Glucuronidase; hydrolysis time 5 min): 2.23%
% of Example 1 (Phenolic Glucuronide) (β-Glucuronidase; hydrolysis time 10 min): 1.04%
% of Example 1 (Phenolic Glucuronide) (β-Glucuronidase; hydrolysis time 20 min): 0.77%
% of Example 1 (Phenolic Glucuronide) (β-Glucuronidase; hydrolysis time 30 min): 0%
% of Example 1 (Phenolic Glucuronide) (β-Glucuronidase; hydrolysis time 180 min): 0%
Compound: O=C(O)[C@H]1O[C@@H](Oc2ccc([C@@H]3[C@@H](CC[C@H](O)c4ccc(F)cc4)C(=O)N3c3ccc(F)cc3)cc2)[C@H](O)[C@@H](O)[C@@H]1O [Example 1]
% Reduction in Plasma Cholesterol (Hyperlipidemic Hamster; dose 3 mg/kg): −58%
% Reduction in Cholesterol Esters (Hyperlipidemic Hamster; dose 3 mg/kg): −95%
Relative rate of β-glucuronidase hydrolysis (β-Glucuronidase; 5, 10, 20, 30 and 180 min): hydrolyzed at a faster rate than Compound III
Outcome of β-glucuronidase hydrolysis (β-Glucuronidase): hydrolyzed to form a single Compound 6A peak
